The values below are quoted from earlier work in patent US20070196500A1, “Composition for oral administration of tamsulosin hydrochloride and controlled release granule formulation comprising same” (priority 2004, published 2007).

Structures can show the parent of a compound that is named as a salt.

On to `CCOc1ccccc1OCCN[C@H](C)Cc1ccc(OC)c(S(N)(=O)=O)c1` [Tamsulosin hydrochloride, tamsulosin hydrochloride], for which the water-solubility result is recorded as “low water-solubility”.
